Source: patent US20140081017A1, “Histone Deacetylase Inhibitors for Enhancing Activity of Antifungal Agents” (METHYLGENE INC., priority 2012, published 2014)
Values after ≈ are worked out from the molar mass of the structure shown. Where two headings read alike, the source gives them in different places.

Experiments:
Candida albicans = assay: Minimal Inhibitory Concentration (MIC) assay, broth microdilution per CLSI; type: cell-based; settings: Candida albicans, read-out: Minimum Inhibitory Concentrations against Yeast Isolates, Candida albicans;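 also: two read times 24 hr and 48 hr of incubation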
In short: (§1)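 CLSI broth microdilution in RPMI with 0.165 M MOPS, pH 7.0, inoculum from 0.5 McFarland suspension diluted 1:100; compounds in DMSO. Incubation at 35°C for about 24-48 hr; MIC is lowest concentration without visible growth, fluconazole at prominent decrease in growth.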

Candida parapsilosis = assay: as above; type: cell-based; settings: Lodderomyces parapsilosis, read-out: Minimum Inhibitory Concentrations against Yeast Isolates, Candida parapsilosis;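 also: two read times 24 hr and 48 hr of incubation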
In short: as §1

Candida glabrata = assay: as above; type: cell-based; settings: Nakaseomyces glabratus, read-out: Minimum Inhibitory Concentrations against Yeast Isolates, Candida glabrata;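 also: two read times 24 hr and 48 hr of incubation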
In short: as §1

C. glabrata = assay: Checkerboard FIC assay in combination with fluconazole (MIC alone and in combination, FICI); type: cell-based, Candida glabrata; settings: for FICI of combination resulting in fluconazole MIC of: 2 ug/mL / FICI of combination resulting in fluconazole MIC of: 4 ug/mL / FICI of combination resulting in fluconazole MIC of: 8 ug/mL: FICI calculated using a fluconazole MIC of 16 μg/mL; for FICI of combination resulting in fluconazole MIC of: 2 ug/mL (value in parenthesis) / FICI of combination resulting in fluconazole MIC of: 4 ug/mL (value in parenthesis) / FICI of combination resulting in fluconazole MIC of: 8 ug/mL (value in parenthesis): FICI using a fluconazole MIC of 128 μg/mL; for MIC: Nakaseomyces glabratus; for Multiple of compound MIC to synergize fluconazole MIC to 2 ug/mL / Multiple of compound MIC to synergize fluconazole MIC to 4 ug/mL / Multiple of compound MIC to synergize fluconazole MIC to 8 ug/mL: concentration in combination as multiple of the compound's MIC alone; for Multiple of compound MIC to synergize fluconazole MIC to 2 ug/mL: fluconazole MIC 2 ug/mL; for Multiple of compound MIC to synergize fluconazole MIC to 4 ug/mL: fluconazole MIC 4 ug/mL; for Multiple of compound MIC to synergize fluconazole MIC to 8 ug/mL: fluconazole MIC 8 ug/mL; for Concentration of Methylgene compound to synergize fluconazole MIC to 2 ug/mL / Concentration of Methylgene compound to synergize fluconazole MIC to 4 ug/mL / Concentration of Methylgene compound to synergize fluconazole MIC to 8 ug/mL: in combination with fluconazole; for Concentration of Methylgene compound to synergize fluconazole MIC to 2 ug/mL: fluconazole MIC lowered to 2 ug/mL; for Concentration of Methylgene compound to synergize fluconazole MIC to 4 ug/mL: fluconazole MIC lowered to 4 ug/mL; for Concentration of Methylgene compound to synergize fluconazole MIC to 8 ug/mL: fluconazole MIC lowered to 8 ug/mL
In short: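 A fluconazole synergy checkerboard was run against C. glabrata in MOPS-buffered RPMI (pH 7.0) for about 48 h at 35 °C. Each agent was diluted 2-fold, with one row and one column holding each agent alone for MIC determination. FICI was calculated from these MICs, using a 0.5 McFarland inoculum diluted 1:100 per CLSI.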

[1] = 24 hr reading (first value of cell 24 hr/48 hr)
[2] = 48 hr reading (second value of cell 24 hr/48 hr)
[3] = MIC of the example compound alone against C. glabrata in the checkerboard assay, approximately 48 hr, read-out: Methylgene MIC
[4] = test compound alone, C. glabrata, approx. 48 hr at 35° C., read-out: Compound MIC

Structure (SMILES) | MIC (Candida albicans; [1]) [µg/mL] | MIC (Candida albicans; [2]) [µg/mL] | MIC (Candida parapsilosis; [1]) [µg/mL] | MIC (Candida parapsilosis; [2]) [µg/mL] | MIC (Candida glabrata; [1]) [µg/mL] | MIC (Candida glabrata; [2]) [µg/mL] | FICI of combination resulting in fluconazole MIC of: 2 ug/mL (C. glabrata; C. glabrata) | FICI of combination resulting in fluconazole MIC of: 4 ug/mL (C. glabrata; C. glabrata) | FICI of combination resulting in fluconazole MIC of: 8 ug/mL (C. glabrata; C. glabrata) | FICI of combination resulting in fluconazole MIC of: 2 ug/mL (value in parenthesis) (C. glabrata; C. glabrata) | FICI of combination resulting in fluconazole MIC of: 4 ug/mL (value in parenthesis) (C. glabrata; C. glabrata) | FICI of combination resulting in fluconazole MIC of: 8 ug/mL (value in parenthesis) (C. glabrata; C. glabrata) | MIC (C. glabrata; [3]) [µg/mL] | MIC (C. glabrata; [4]) [µg/mL] | Multiple of compound MIC to synergize fluconazole MIC to 2 ug/mL (C. glabrata) | Multiple of compound MIC to synergize fluconazole MIC to 4 ug/mL (C. glabrata) | Multiple of compound MIC to synergize fluconazole MIC to 8 ug/mL (C. glabrata) | Concentration of Methylgene compound to synergize fluconazole MIC to 2 ug/mL (C. glabrata; C. glabrata) [µg/mL] | Concentration of Methylgene compound to synergize fluconazole MIC to 4 ug/mL (C. glabrata; C. glabrata) [µg/mL] | Concentration of Methylgene compound to synergize fluconazole MIC to 8 ug/mL (C. glabrata; C. glabrata) [µg/mL]
Nc1ccc(CCCCc2ccc(CC(=O)NO)cc2)cc1 [Example 31, 2-(4-(4-(4-aminophenyl)butyl)phenyl)-N-hydroxyacetamide] | > 16 | > 16 | > 16 | > 16 | > 8 | > 8 | 0.375 | 0.500 | 0.625 | 0.266 | 0.281 | 0.188 | 4 | 4 | (¼x) | (¼x) | (⅛x) | 1 | 1 | 0.5
Nc1cccc(CCCCc2ccc(CC(=O)NO)cc2)c1 [Example 32, 2-(4-(4-(3-aminophenyl)butyl)phenyl)-N-hydroxyacetamide] | 32 (≈ 107 µM) | 32 (≈ 107 µM) | 32 (≈ 107 µM) | 32 (≈ 107 µM) | > 32 | > 32 | 0.625 | 0.500 | 0.625 | 0.516 | 0.281 | 0.188 | 2 | 2 | (½x) | (¼x) | (⅛x) | 1 | 0.5 | 0.25
Nc1ccccc1CCCCc1ccc(CC(=O)NO)cc1 [Example 33, 2-(4-(4-(2-aminophenyl)butyl)phenyl)-N-hydroxyacetamide] | 8 (≈ 26.8 µM) | 16 (≈ 53.6 µM) | 8 (≈ 26.8 µM) | 16 (≈ 53.6 µM) | 4 (≈ 13.4 µM) | 8 (≈ 26.8 µM) | 0.313 | 0.375 | 0.500 | 0.266 | 0.281 | 0.313 | 8 | 8 | (¼x) | (¼x) | (¼x) | 2 | 2 | 2
CN1CCC(C(=O)Nc2ccc(CCCCc3ccc(CC(=O)NO)cc3)cc2)CC1.Cl [Example 34, N-(4-(4-(4-(2-(hydroxyamino)-2-oxoethyl)phenyl)butyl)phenyl)-1-methylpiperidine-4-carboxamide hydrochloride] | > 64 | > 64 | > 64 | > 64 | > 64 | > 64 | 0.375 | 0.375 | 0.625 | 0.266 | 0.156 | 0.188 | 8 | 8 | (¼x) | (⅛x) | (⅛x) | 2 | 1 | 1
COCCOCCOCC(=O)Nc1ccc(CCCCc2ccc(CC(=O)NO)cc2)cc1 [Example 35, N-hydroxy-2-(4-(4-(4-(2-(2-(2-methoxyethoxy)ethoxy)acetamido)phenyl)butyl)phenyl)acetamide] | 64 (≈ 140 µM) | 64 (≈ 140 µM) | 64 (≈ 140 µM) | 64 (≈ 140 µM) | 64 (≈ 140 µM) | > 64 | 0.375 | 0.500 | 0.625 | 0.266 | 0.281 | 0.188 | 4 | 4 | (¼x) | (¼x) | (⅛x) | 1 | 1 | 0.5
O=C(Cc1ccc(CCCCc2ccc(NC(=O)CO)cc2)cc1)NO [Example 36, N-hydroxy-2-(4-(4-(4-(2-hydroxyacetamido)phenyl)butyl)phenyl)acetamide] | > 8 | > 8 | > 8 | > 8 | > 8 | > 8 | 0.375 | 0.500 | 0.625 | 0.266 | 0.281 | 0.188 | 16 | 16 | (¼x) | (¼x) | (⅛x) | 4 | 4 | 2
COCCOCCOCCOCCC(=O)Nc1ccc(CCCCc2ccc(CC(=O)NO)cc2)cc1 [Example 37, N-(4-(4-(4-(2-(hydroxyamino)-2-oxoethyl)phenyl)butyl)phenyl)-2,5,8,11-tetraoxatetradecan-14-amide] | > 64 | > 64 | > 64 | > 64 | 64 (≈ 124 µM) | > 64 | 0.375 | 0.500 | 0.625 | 0.266 | 0.281 | 0.188 | 4 | 4 | (¼x) | (¼x) | (⅛x) | 1 | 1 | 0.5
